The source of these data is patent US9365522B2, “Pyrazole amide derivative” (AMGEN INC., priority 2015, dated 2016).

This assay addresses T1, human RORγ-LBD (Homo sapiens, UniProt P51449).
T1 construct: made in house; host or cells: E. coli (BL-21)
T1 sequence (P51449 262-518): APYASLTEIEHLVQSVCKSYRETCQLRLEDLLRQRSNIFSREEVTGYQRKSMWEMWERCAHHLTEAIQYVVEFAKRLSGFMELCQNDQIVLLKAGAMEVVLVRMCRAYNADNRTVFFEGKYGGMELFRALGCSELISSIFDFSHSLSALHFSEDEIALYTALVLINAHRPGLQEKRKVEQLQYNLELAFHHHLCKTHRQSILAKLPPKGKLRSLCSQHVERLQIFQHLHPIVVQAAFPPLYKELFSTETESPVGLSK
Briefly: ROR gamma coactivator peptide recruitment Alphascreen assay (RORγ-LBD binding to GRIP1 coactivator peptide). It counts as biochemical. The conditions noted are these: 5 nM human RORγ-LBD, 30 nM 7-β-hydroxycholesterol, 50 nM biotinylated GRIP1 coactivator peptide, overnight incubation at room temperature; read-out: result (pIC50, RORγ coactivator peptide recruitment Alphascreen assay) (converted). Summed up: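 His/Flag-tagged human RORγ-LBD (aa 262-518, E. coli-expressed, 5 nM) with agonist 7-β-hydroxycholesterol (30 nM) and biotinylated GRIP1 LXXLL peptide (50 nM) in HEPES pH 7.4 buffer, 2.5% DMSO. Compound 1-in-2 dilutions; Alphascreen bead signal read after overnight incubation at room temperature; pIC50 calculated.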
For orientation: Alpha assays give light when donor and acceptor beads are brought close together.
For the compound `C[C@]1(CN(CC(=O)c2c(Cl)cncc2Cl)C(=O)c2cnn([C@H]3CC[C@](C)(C(=O)O)CC3)c2C(F)(F)F)CCCO1` [Example 661, trans-4-(4-((2-(3,5-dichloro-4-pyridinyl)-2-oxoethyl)(((2R)-2-methyltetrahydro-2-furanyl)methyl)carbamoyl)-5-(trifluoromethyl)-1H-pyrazol-1-yl)-1-methylcyclohexanecarboxylic acid], the IC50 is 20.4 nM.
For `C[C@H]1C[C@H](n2ncc(C(=O)N(CC(=O)c3c(Cl)cccc3Cl)CC3CC(C)(C)C3)c2C(F)(F)F)CC[C@H]1C(=O)O` [Example 662, (1R,2S,4R)-4-(4-((2-(2,6-dichlorophenyl)-2-oxoethyl)((3,3-dimethylcyclobutyl)methyl)carbamoyl)-5-(trifluoromethyl)-1H-pyrazol-1-yl)-2-methylcyclohexanecarboxylic acid] the value was 7.08 nM.
With `C[C@@H]1C[C@@H](n2ncc(C(=O)N(CC(=O)c3c(Cl)cccc3Cl)CC3CC(C)(C)C3)c2C(F)(F)F)CC[C@@H]1C(=O)O` [Example 663, (1S,2R,4S)-4-(4-((2-(2,6-dichlorophenyl)-2-oxoethyl)((3,3-dimethylcyclobutyl)methyl)carbamoyl)-5-(trifluoromethyl)-1H-pyrazol-1-yl)-2-methylcyclohexanecarboxylic acid], the IC50 is 1.95 nM.
As for `C[C@]1(C(=O)O)CC[C@H](n2ncc(C(=O)N(CC(=O)c3c(Cl)cc(F)cc3Cl)CC3CCCCC3)c2C(F)(F)F)CC1` [Example 664, trans-4-(4-((cyclohexylmethyl)(2-(2,6-dichloro-4-fluorophenyl)-2-oxoethyl)carbamoyl)-5-(trifluoromethyl)-1H-pyrazol-1-yl)-1-methylcyclohexanecarboxylic acid], the IC50 was 1.45 nM.
With `Cc1cc(Cl)c(C(=O)CN(CC2(F)CCCCC2)C(=O)c2cnn([C@H]3CC[C@](C)(C(=O)O)CC3)c2C(F)(F)F)c(Cl)c1` [Example 665, trans-4-(4-((2-(2,6-dichloro-4-methylphenyl)-2-oxoethyl)((1-fluorocyclohexyl)methyl)carbamoyl)-5-(trifluoromethyl)-1H-pyrazol-1-yl)-1-methylcyclohexanecarboxylic acid], the IC50 is 1.38 nM.
The same measure for `C[C@]1(C(=O)O)CC[C@H](n2ncc(C(=O)N(CC(=O)c3c(Cl)cncc3Cl)CC3(F)CCCCC3)c2C(F)(F)F)CC1` [Example 666, trans-4-(4-((2-(3,5-dichloro-4-pyridinyl)-2-oxoethyl)((1-fluorocyclohexyl)methyl)carbamoyl)-5-(trifluoromethyl)-1H-pyrazol-1-yl)-1-methylcyclohexanecarboxylic acid]: 4.57 nM; for `O=C(CN(CC1(F)CCCC1)C(=O)c1cnn([C@H]2CC[C@@H](C(=O)O)CC2)c1C(F)(F)F)c1c(Cl)cncc1Cl` [Example 667, cis-4-(4-((2-(3,5-dichloro-4-pyridinyl)-2-oxoethyl)((1-fluorocyclopentyl)methyl)carbamoyl)-5-(trifluoromethyl)-1H-pyrazol-1-yl)cyclohexanecarboxylic acid]: 302 nM.
The same measure for `CC1(C)CC(CN(CC(=O)c2c(Cl)cccc2Cl)C(=O)c2cnn([C@H]3C[C@H](CC(=O)O)C3)c2C(F)(F)F)C1` [Example 668, (trans-3-(4-((2-(2,6-dichlorophenyl)-2-oxoethyl)((3,3-dimethylcyclobutyl)methyl)carbamoyl) 5-(trifluoromethyl)-1H-pyrazol-1-yl)cyclobutyl)acetic acid]: 3.47 nM; for `CC1(C)CC(CN(CC(=O)c2c(Cl)cccc2Cl)C(=O)c2cnn([C@H]3C[C@@H](CC(=O)O)C3)c2C(F)(F)F)C1` [Example 669, (cis-3-(4-((2-(2,6-dichlorophenyl)-2-oxoethyl)((3,3-dimethylcyclobutyl)methyl)carbamoyl) 5-(trifluoromethyl)-1H-pyrazol-1-yl)cyclobutyl)acetic acid]: 4.07 nM.
For `CC(C)(C)CN(CC(=O)c1c(Cl)cccc1Cl)C(=O)c1cnn([C@H]2CC[C@@H](C(=O)O)CC2)c1C(F)(F)F` [Example 670, cis-4-(4-((2-(2,6-dichlorophenyl)-2-oxoethyl)(2,2-dimethylpropyl)carbamoyl)-5-(trifluoromethyl)-1H-pyrazol-1-yl)cyclohexanecarboxylic acid] the value was 21.9 nM; for `CC1(CN(CC(=O)c2c(Cl)cc(F)cc2Cl)C(=O)c2cnn([C@H]3CC[C@](C)(C(=O)O)CC3)c2C(F)(F)F)CCCC1` [Example 671, trans-4-(4-((2-(2,6-dichloro-4-fluorophenyl)-2-oxoethyl)((1-methylcyclopentyl)methyl)carbamoyl)-5-(trifluoromethyl)-1H-pyrazol-1-yl)-1-methylcyclohexanecarboxylic acid], 0.871 nM; for `CC1(C)CC(CN(CC(=O)c2c(Cl)cccc2Cl)C(=O)c2cnn([C@H]3CC[C@@](C)(C(=O)O)CC3)c2C(F)(F)F)C1` [Example 672, trans-4-(4-((2-(2,6-dichlorophenyl)-2-oxoethyl)((3,3-dimethylcyclobutyl)methyl)carbamoyl)-5-(trifluoromethyl)-1H-pyrazol-1-yl)-1-methylcyclohexanecarboxylic acid], 2.04 nM.
Turning to `CC1(C)CC[C@@H](CN(CC(=O)c2c(Cl)cncc2Cl)C(=O)c2cnn([C@H]3CC[C@](C)(C(=O)O)CC3)c2C(F)(F)F)O1` [Example 673, trans-4-(4-((2-(3,5-dichloro-4-pyridinyl)-2-oxoethyl)(((2S)-5,5-dimethyltetrahydro-2-furanyl)methyl)carbamoyl)-5-(trifluoromethyl)-1H-pyrazol-1-yl)-1-methylcyclohexanecarboxylic acid], the IC50 is 36.3 nM.
On to `CC1(C)CC[C@H](CN(CC(=O)c2c(Cl)cncc2Cl)C(=O)c2cnn([C@H]3CC[C@](C)(C(=O)O)CC3)c2C(F)(F)F)O1` [Example 674, trans-4-(4-((2-(3,5-dichloro-4-pyridinyl)-2-oxoethyl)(((2S)-5,5-dimethyltetrahydro-2-furanyl)methyl)carbamoyl)-5-(trifluoromethyl)-1H-pyrazol-1-yl)-1-methylcyclohexanecarboxylic acid], for which the IC50 was 17.8 nM.
Consider `CC1(CN(CC(=O)c2c(Cl)cncc2Cl)C(=O)c2cnn([C@H]3CC[C@](C)(C(=O)O)CC3)c2C(F)(F)F)COC1` [Example 675, trans-4-(4-((2-(3,5-dichloro-4-pyridinyl)-2-oxoethyl)((3-methyl-3-oxetanyl)methyl)carbamoyl)-5-(trifluoromethyl)-1H-pyrazol-1-yl)-1-methylcyclohexanecarboxylic acid], for which the IC50 was 234 nM.
With `Cc1cc(Cl)c(C(=O)CN(CC2(C)COC2)C(=O)c2cnn([C@H]3CC[C@](C)(C(=O)O)CC3)c2C(F)(F)F)c(Cl)c1` [Example 676, trans-4-(4-((2-(2,6-dichloro-4-methylphenyl)-2-oxoethyl)((3-methyl-3-oxetanyl)methyl)carbamoyl)-5-(trifluoromethyl)-1H-pyrazol-1-yl)-1-methylcyclohexanecarboxylic acid], the IC50 was 51.3 nM.
For the compound `C[C@]1(C(=O)O)CC[C@H](n2ncc(C(=O)N(CC(=O)c3c(Cl)cncc3Cl)[C@H]3C[C@@H]4CC[C@H]3C4)c2C(F)(F)F)CC1` [Example 677, trans-4-(4-((1S,2R,4R)-bicyclo[2.2.1]hept-2-yl(2-(3,5-dichloro-4-pyridinyl)-2-oxoethyl)carbamoyl)-5-(trifluoromethyl)-1H-pyrazol-1-yl)-1-methylcyclohexanecarboxylic acid], the IC50 was 5.62 nM.
As to `Cc1cc(Cl)c(C(=O)CN(C(=O)c2cnn([C@H]3CC[C@](C)(C(=O)O)CC3)c2C(F)(F)F)[C@H]2C[C@@H]3CC[C@H]2C3)c(Cl)c1` [Example 678, trans-4-(4-((1S,2S,4R)-bicyclo[2.2.1]hept-2-yl(2-(2,6-dichloro-4-methylphenyl)-2-oxoethyl)carbamoyl)-5-(trifluoromethyl)-1H-pyrazol-1-yl)-1-methylcyclohexanecarboxylic acid], the IC50 was 1.07 nM.
Turning to `CC1(C)CC[C@H](CN(CCc2c(Cl)cncc2Cl)C(=O)c2cnn([C@H]3CC[C@](C)(C(=O)O)CC3)c2C(F)(F)F)O1` [Example 679, trans-4-(4-((2-(3,5-dichloro-4-pyridinyl)ethyl)(((2R)-5,5-dimethyltetrahydro-2-furanyl)methyl)carbamoyl)-5-(trifluoromethyl)-1H-pyrazol-1-yl)-1-methylcyclohexanecarboxylic acid], the IC50 was 12 nM.
As for `CC1(C)CC[C@@H](CN(CCc2c(Cl)cncc2Cl)C(=O)c2cnn([C@H]3CC[C@](C)(C(=O)O)CC3)c2C(F)(F)F)O1` [Example 680, trans-4-(4-((2-(3,5-dichloro-4-pyridinyl)ethyl)(((2S)-5,5-dimethyltetrahydro-2-furanyl)methyl)carbamoyl)-5-(trifluoromethyl)-1H-pyrazol-1-yl)-1-methylcyclohexanecarboxylic acid], the IC50 is 47.9 nM.
For the compound `C[C@]1(CN(CCc2c(Cl)cncc2Cl)C(=O)c2cnn([C@H]3CC[C@](C)(C(=O)O)CC3)c2C(F)(F)F)CCCO1` [Example 681, trans-4-(4-((2-(3,5-dichloro-4-pyridinyl)ethyl)(((2R)-2-methyltetrahydro-2-furanyl)methyl)carbamoyl)-5-(trifluoromethyl)-1H-pyrazol-1-yl)-1-methylcyclohexanecarboxylic acid], the IC50 is 9.55 nM.
